Test results taken from patent US6867236B1, “Method of preventing of delaying the onset and progression of Alzheimer's disease and related disorders” (Duke University, priority 1994, dated 2005).

System: Alzheimer's disease
Assay: Case-control study of sibships at high risk: odds ratios for age-adjusted risk of Alzheimer's disease with prior drug exposure (Cox proportional hazards models)
Assay type: in vivo, human
Settings: for effect on risk of Alzheimer's disease in words: drug alone, orthogonal comparison with NSAIDs; for Odds ratio for risk of Alzheimer's disease: COL + AU, simple odds ratio
Method: Briefly, doubly affected sib pairs with Alzheimer's disease onset ages that differed by at least 3 years were studied, as were disease-discordant siblings whose unaffected sib(s) had survived at least 3 years beyond the onset age of the affected sib. Premorbid exposures to steroids, NSAIDs and other treatments were assessed for 186 subjects (91% response rate) by focused retrospective interviews using appropriate blinding and multiple informants when possible. Survival analysis methods were used to compare age-adjusted risk of Alzheimer's disease among sibs who had been exposed or unexposed, before onset, to glucocorticoids, aspirin, non-aspirin NSAIDs, and histamine H2 receptor blockers. […] The odds ratios for steroids, aspirin and non-aspirin NSAIDs fell within the related confidence interval from the prior twin study (Breitner, Neurology 44:227 (1994)).
Doubly affected sib pairs with Alzheimer's disease onset ages that differed by at least 3 years were studied, as were disease-discordant siblings whose unaffected sib(s) had survived at least 3 years beyond the onset age of the affected sib. Diagnoses and ages at onset of Alzheimer's disease were established by consideration of all relevant data, including extensive longitudinal observation, laboratory testing, and autopsy confirmation when available. Arthritis, peptic ulcer disease, and other non-neurological conditions were not considered when making these diagnoses. Subjects or their collateral informants received a letter, followed by a structured telephone interview, that investigated several common medical conditions (arthritis, diabetes, peptic ulcer disease) and treatments (glucocorticoids, nonsteroidal anti-inflammatories, including aspirin, acetaminophen, narcotic analgesics, insulin and oral hypoglycemic drugs, and histamine H2 blocking agents). The interview also sought timing and duration of exposure. The interviewers generally knew which subjects had Alzheimer's disease but were blinded to early- or late-affected status. The respondents were not made aware of the hypothesis under investigation. Collateral informants supplied data for the 107 subjects who had developed Alzheimer's disease. Collateral information was also sought for the remaining subjects; however, it is was necessary to rely on autobiographical data from 20 (26%).
Like dizygous twins, siblings share 50% of their genetic make-up on average. The relation of Alzheimer's disease onset and prior use of anti-inflammatory drugs was therefore studied in a sample of 186 sibs from 45 pedigrees ascertained for genetic linkage studies of late onset Alzheimer's disease (Pericak-Vance et al, Am. J. Hum. Genet. 48:1034 (1991)). The selected sibs were members of onset-discordant doubly affected pairs or disease-discordant pairs meeting criteria described above.
These differences and the association of Alzheimer's disease with the remaining exposures were investigated using Cox proportional hazards models (Cox, J. Roy. Stat. Soc. (Series B) 34:248-275 (1972)) in which the sample was first stratified by sibship. Table 2 reports odds ratios (o.r), the customary measure of risk associated with an exposure in case-control work. The o.r. is ordinarily calculated as the ratio of proportions exposed versus unexposed in the affected and unaffected groups; for conditions like Alzheimer's disease with age-dependent expression (Breitner et al, Am. J. Epidemiol. 128:536-548 (1988)), the o.r. is preferably calculated using proportional hazards or similar models which consider subjects' current age or age at death (i.e., censoring age), or age at onset of Alzheimer's disease. An o.r. of less than 1 implies reduced risk of disease with exposure. […] The apparent effect of both aspirin and NSAIDs increased with duration of exposure; the o.r. with use of NSAIDs for >1 yr. […]

[1] = Table 2, source of data COL + AU (collateral + autobiographical), stratified by sibship
[2] = Table 2, source of data COL only (collateral informants), stratified by sibship, exposure >=1 month
[3] = Table 3, orthogonal comparison, not stratified by sibship, no NSAIDs

CC(=O)Nc1ccc(O)cc1 [Acetaminophen]
Odds ratio for age-adjusted risk of Alzheimer's disease [1]: 0.104 | Odds ratio for age-adjusted risk of Alzheimer's disease [2]: 0.157 | Odds ratio for age-adjusted risk of Alzheimer's disease [3]: 0.192 | effect on risk of Alzheimer's disease in words: comparable but statistically inconclusive effect

CC(=O)Oc1ccccc1C(=O)O [Aspirin]
Odds ratio for risk of Alzheimer's disease (Table 2, exposed 1-12 mo.): 0.625 | Odds ratio for risk of Alzheimer's disease (Table 2, exposed >1 yr.): 0.369 | Odds ratio for age-adjusted risk of Alzheimer's disease [1]: 0.343 | Odds ratio for age-adjusted risk of Alzheimer's disease [2]: 0.349 | Odds ratio for age-adjusted risk of Alzheimer's disease [3]: 0.508 | effect on risk of Alzheimer's disease in words: weak but similar effect to NSAIDs | estimated odds ratios (o.r.), age-adjusted risk of Alzheimer's disease (sibs exposed or unexposed before onset): 0.35
